In patent US7919488B2, “Therapeutic compounds” (Pfizer Inc., priority 2006, dated 2011):
Structures can show the parent of a compound that is named as a salt.

Legend:
Type in all cases: biochemical
CYP3A4 [1] = target: T1, CYP3A4 (Homo sapiens, UniProt P08684); test: IC50 against CYP3A4 by inhibition of midazolam metabolism in human liver microsomes; details: 0.1 mg/mL human liver microsomes, 2 μM midazolam, 1 mM NADPH, 1-hydroxymidazolam production, eight minutes; read-out: IC50, μM (HLM, midazolam)
T1 construct: 0.1 mg/mL human liver microsomes; from tissue; host or cells: human liver microsomes
Summary of the method: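 Human liver microsomes (0.1 mg/mL) incubated 8 min with 2 μM midazolam and 1 mM NADPH in 100 mM potassium phosphate, pH 7.4. 1-Hydroxymidazolam quantified by LC-MS/MS (MRM) as peak area ratio to internal standard against a metabolite standard curve.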

CYP3A4 [2] = target: T1, CYP3A4; test: IC50 against CYP3A4 by inhibition of testosterone metabolism in human liver microsomes; details: 0.1 mg/mL human liver microsomes, 25 μM testosterone, 1 mM NADPH, 6-β-OH-testosterone production, eight minutes; read-out: IC50, μM (HLM, testosterone)
Summary of the method: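 Testosterone used as substrate, incubated for eight minutes. 6-β-OH-testosterone formation quantified by LC-MS/MS (MRM) as peak area ratio to internal standard against a metabolite standard curve. IC50 derived from inhibition of this metabolism.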

[3] = target: T2, recombinant CYP3A4+b5 enzyme (Supersomes®) (Homo sapiens, UniProt P08684); test: Kiapp against recombinant CYP3A4 enzyme (Supersomes), BFC substrate; details: recombinant CYP3A4+b5 (BD Biosciences), 5 uM BFC, 200 uM NADPH, pre-incubation at least 30 minutes, pH 7.0, room temperature
T2 construct: purchased BD Biosciences (Woburn, Mass.)
Procedure: 1. Determination of Compound Kiapp
A determination of the Kiapp of the compounds of the invention against recombinant CYP3A4 enzyme was performed as follows. The assay was performed in a 100 mM sodium phosphate buffer pH 7.0, 5 mM TCEP and containing 2% dimethylformamide (final concentration) upon addition of substrate and inhibitor. A typical reaction for the determination of Kiapp values was carried at room temperature in a solid black Costar u-bottom 96-well polypropylene plate. In each well, recombinant CYP3A4 enzyme (5.5 nM or 8 nM, final concentration depending on the commercial source of the enzyme) was pre-incubated in the presence of the inhibitor for at least 30 minutes in the assay buffer. When pre-incubation was completed (˜30 min), the reaction was initiated by adding NADPH (200 uM, final concentration), and 7-benzyloxy-4-(trifluoromethyl)-coumarin (BFC) (5 uM, final concentration). The oxidation of the coumarin substrate was recorded by a 96-well plate reader POLARstar (BMG LABTECH, Offenburg, Germany).
The initial reaction velocities were measured during the first 5 min of the reaction when the release of the fluorescent product is linear with time, in the absence and in the presence of various concentrations of inhibitors. For non-partial & partial inhibitors, the Kiapp values were determined by using the equation for tight-binding inhibitor developed by Morrison, J F (Morrison J F. Biochim Biophys Acta. 1969, 185: 269-86) and by Szedlaseck S E et al. (Szedlascek, S. E., Ostafe, V., Serban, M., and Vlad, M. O. Biochem. J. 1988, 254:311-312), respectively.
The fluorescent substrate BFC was purchased from Sigma (St Louis, Mo.). Two commercial sources of recombinant enzymes were used in this study: recombinant CYP3A4-b5 enzyme (Baculosomes®) was purchased from Invitrogen (Carlsbad, Calif.) and the recombinant CYP3A4+b5 enzyme (Supersomes®) was purchased from BD Biosciences (Woburn, Mass.).

[4] = target: T3, recombinant CYP3A4-b5 enzyme (Baculosomes®) (Homo sapiens, UniProt P08684); test: Kiapp against recombinant CYP3A4 enzyme (Baculosomes), BFC substrate; details: recombinant CYP3A4-b5 (Invitrogen), 5 uM BFC, 200 uM NADPH, pre-incubation at least 30 minutes, pH 7.0, room temperature
T3 construct: purchased Invitrogen (Carlsbad, Calif.)
Summary of the method: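 Recombinant CYP3A4-b5 Baculosomes were run in 100 mM sodium phosphate pH 7.0 with 5 mM TCEP and 2% DMF at room temperature, with ~30 min pre-incubation. The reaction was started with NADPH (200 uM) and BFC (5 uM), both final. Kiapp came from initial fluorescence velocities over the first 5 min across inhibitor concentrations.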

T2 sequence (P08684 2-503 limits assumed): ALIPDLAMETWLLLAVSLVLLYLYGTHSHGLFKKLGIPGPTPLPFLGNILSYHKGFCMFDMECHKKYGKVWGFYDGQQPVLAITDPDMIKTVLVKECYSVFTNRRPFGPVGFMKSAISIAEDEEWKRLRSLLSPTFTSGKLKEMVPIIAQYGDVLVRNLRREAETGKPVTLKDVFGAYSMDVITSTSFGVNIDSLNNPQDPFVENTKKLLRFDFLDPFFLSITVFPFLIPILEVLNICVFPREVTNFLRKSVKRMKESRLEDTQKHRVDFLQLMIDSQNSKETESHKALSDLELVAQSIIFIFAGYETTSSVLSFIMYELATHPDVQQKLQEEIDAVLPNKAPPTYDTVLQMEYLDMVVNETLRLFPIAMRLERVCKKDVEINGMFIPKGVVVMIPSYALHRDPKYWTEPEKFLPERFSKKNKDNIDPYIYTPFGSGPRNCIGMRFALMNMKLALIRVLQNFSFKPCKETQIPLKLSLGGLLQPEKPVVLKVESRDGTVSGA
T3 sequence (P08684 whole entry): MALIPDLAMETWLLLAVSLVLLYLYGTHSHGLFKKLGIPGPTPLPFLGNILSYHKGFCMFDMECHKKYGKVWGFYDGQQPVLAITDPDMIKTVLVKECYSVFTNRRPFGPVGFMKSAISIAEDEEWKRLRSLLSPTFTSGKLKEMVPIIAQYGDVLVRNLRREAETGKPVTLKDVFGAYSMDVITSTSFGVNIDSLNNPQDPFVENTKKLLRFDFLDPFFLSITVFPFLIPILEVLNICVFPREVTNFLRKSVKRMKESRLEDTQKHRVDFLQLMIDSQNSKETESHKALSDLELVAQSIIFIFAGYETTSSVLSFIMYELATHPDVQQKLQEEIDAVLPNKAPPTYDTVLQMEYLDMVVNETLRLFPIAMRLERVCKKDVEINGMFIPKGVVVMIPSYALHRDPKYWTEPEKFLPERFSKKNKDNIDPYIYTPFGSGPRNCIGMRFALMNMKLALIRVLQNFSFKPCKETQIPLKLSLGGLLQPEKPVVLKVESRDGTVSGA
T1 sequence (P08684 whole entry): as above

IC50 (CYP3A4 [1]) | IC50 (CYP3A4 [2]) | Ki [3] | Ki [4] | SMILES
0.015 µM | 0.032 µM | 0.00618 µM | 0.0276 µM | COC(=O)N[C@H]1CCN(C(=O)Cn2nc(-c3ccncc3)cc2Cc2ccc(F)cc2)C1 [Example 130, methyl [(3S)-1-{[5-(4-fluorobenzyl)-3-pyridin-4-yl-1H-pyrazol-1-yl]acetyl}pyrrolidin-3-yl]carbamate]
< 0.012 µM | < 0.021 µM | 0.0059 µM | 0.0871 µM | O=C(Cn1nc(-c2ccncc2)cc1Cc1ccc(F)cc1)N[C@H]1CC[C@@H](O)CC1 [Example 95, 2-[5-(4-fluorobenzyl)-3-pyridin-4-yl-1H-pyrazol-1-yl]-N-(cis-4-hydroxycyclohexyl)-acetamide]
0.044 µM | 0.0845 µM | 0.0225 µM | 0.298 µM | CC(=O)N[C@@H]1CCN(C(=O)Cn2nc(-c3ccncc3)cc2Cc2ccc(F)cc2)C1 [Example 100, N-[(3R)-1-{2-[5-(4-fluorobenzyl)-3-pyridin-4-yl-1H-pyrazol-1-yl]acetyl}pyrrolidin-3-yl]acetamide]
0.014 µM | 0.007 µM | 0.0039 µM | 0.0134 µM | O=C(Cn1nc(-c2ccncc2)cc1Cc1ccc(F)cc1)NC1CCS(=O)(=O)C1 (centres unmarked) [Example 93, N-(1,1-dioxidotetrahydro-3-thienyl)-2-[5-(4-fluorobenzyl)-3-pyridin-4-yl-1H-pyrazol-1-yl]acetamide]
0.073 µM | 0.105 µM | 0.033 µM | 0.196 µM | CNC1CCN(C(=O)Cn2nc(-c3ccncc3)cc2Cc2ccc(F)cc2)CC1 [Example 7, 1-{[5-(4-fluorobenzyl)-3-pyridin-4-yl-1H-pyrazol-1-yl]acetyl}-N-methylpiperidin-4-amine]
0.022 µM | 0.066 µM | 0.017 µM | 0.312 µM | CNC(=O)N(C)C1CCN(C(=O)Cn2nc(-c3ccncc3)cc2Cc2ccc(F)cc2)C1 (centres unmarked) [Example 129, 1-(1-{[5-(4-fluorobenzyl)-3-pyridin-4-yl-1H-pyrazol-1-yl]acetyl}pyrrolidin-3-yl)-1,3-dimethylurea]
0.02 µM | 0.032 µM | – | 0.0765 µM | CC(C)(O)CNC(=O)Cn1nc(-c2ccncc2)cc1Cc1ccc(F)cc1 [Example 60, 2-[5-(4-fluorobenzyl)-3-pyridin-4-yl-1H-pyrazol-1-yl]-N-(2-hydroxy-2-methylpropyl)acetamide]

Second part, the molecule before the results:

SMILES | IC50 (CYP3A4 [1]) | IC50 (CYP3A4 [2]) | Ki [3] | Ki [4]
CC(=O)N(C)C1CCN(C(=O)Cn2nc(-c3ccncc3)cc2Cc2ccc(F)cc2)C1 (centres unmarked) [Example 99, N-(1-{[5-(4-fluorobenzyl)-3-pyridin-4-yl-1H-pyrazol-1-yl]acetyl}pyrrolidin-3-yl)-N-methylacetamide] | 0.032 µM | 0.064 µM | 0.0178 µM | 0.248 µM
CS(=O)(=O)NC1CCN(C(=O)Cn2nc(-c3ccncc3)cc2Cc2ccc(F)cc2)CC1 [Example 19, N-(1-{2-[5-(4-fluorobenzyl)-3-pyridin-4-yl-1H-pyrazol-1-yl]acetyl}piperidin-4-yl)methanesulfonamide] | 0.0138 µM | 0.033 µM | 0.0057 µM | 0.128 µM
CC(C)NC(=O)N(C)C1CCN(C(=O)Cn2nc(-c3ccncc3)cc2Cc2ccc(F)cc2)CC1 [Example 16, N-(1-{[5-(4-fluorobenzyl)-3-pyridin-4-yl-1H-pyrazol-1-yl]acetyl}piperidin-4-yl)-N′-isopropyl-N-methylurea] | 0.00707 µM | 0.016 µM | 0.0139 µM | 0.0369 µM
CN(C(=O)Cn1nc(-c2c[nH]cn2)cc1Cc1ccc(F)cc1)[C@H]1CC[C@H](O)CC1 [Example 123, 2-[5-(4-fluorobenzyl)-3-(1H-imidazol-4-yl)-1H-pyrazol-1-yl]-N-(trans-4-hydroxycyclohexyl)-N-methylacetamide] | 0.397 µM | 0.554 µM | 0.167 µM | 0.459 µM
CS(=O)(=O)NC1CCN(C(=O)Cn2nc(-c3c[nH]cn3)cc2Cc2ccc(F)cc2)CC1 [Example 119, N-(1-{2-[5-(4-fluorobenzyl)-3-(1H-imidazol-4-yl)-1H-pyrazol-1-yl]acetyl}piperidin-4-yl)methanesulfonamide] | 0.167 µM | > 0.75 µM | 0.166 µM | 0.314 µM
O=C(Cn1nc(-c2ccncc2)cc1Cc1ccc(F)cc1)N1CCCC(N2CCOCC2)CC1 (centres unmarked) [Example 4, 1-{[5-(4-fluorobenzyl)-3-pyridin-4-yl-1H-pyrazol-1-yl]acetyl}-4-morpholin-4-ylazepane, maleic acid salt] | 0.023 µM | 0.057 µM | 0.0061 µM | 0.0211 µM
COC(=O)N(C)C1CCN(C(=O)Cn2nc(-c3ccncc3)cc2Cc2ccc(F)cc2)C1 (centres unmarked) [Example 128, methyl (1-{[5-(4-fluorobenzyl)-3-pyridin-4-yl-1H-pyrazol-1-yl]acetyl}pyrrolidin-3-yl)methylcarbamate] | 0.022 µM | 0.026 µM | 0.00507 µM | 0.0488 µM
Fc1ccc(Cc2cc(-c3ccncc3)n[nH]2)cc1 [Example 1, 4-[5-(4-fluorobenzyl)-1H-pyrazol-3-yl]pyridine] | 0.077 µM | < 0.022 µM | 0.0064 µM | 0.0557 µM
O=C(Cn1nc(-c2ccncc2)cc1Cc1ccc(F)cc1)N1CC(N2CCOCC2)C1 [Example 121, 4-(1-{[5-(4-fluorobenzyl)-3-pyridin-4-yl-1H-pyrazol-1-yl]acetyl}azetidin-3-yl)morpholine] | 0.045 µM | 0.088 µM | 0.0136 µM | 0.0978 µM
CC(C)(CN1CCOCC1)NC(=O)Cn1nc(-c2ccnnc2)cc1Cc1ccc(F)cc1 [Example 133, N-(1,1-dimethyl-2-morpholin-4-ylethyl)-2-[5-(4-fluorobenzyl)-3-pyridazin-4-yl-1H-pyrazol-1-yl]acetamide] | 0.083 µM | 0.044 µM | 0.174 µM | 0.21 µM
CC(=O)N(C)C1CCN(C(=O)Cn2nc(-c3c[nH]cn3)cc2Cc2ccc(F)cc2)CC1 [Example 122, N-(1-{[5-(4-fluorobenzyl)-3-(1H-imidazol-4-yl)-1H-pyrazol-1-yl]acetyl}piperidin-4-yl)-N-methylacetamide] | 0.62 µM | > 0.75 µM | 0.178 µM | 0.482 µM
CN1CCN(C(=O)Cn2nc(-c3ccncc3)cc2Cc2ccc(F)cc2)CC1 [Example 61, 1-{[5-(4-fluorobenzyl)-3-pyridin-4-yl-1H-pyrazol-1-yl]acetyl}-4-methylpiperazine] | 0.016 µM | 0.038 µM | – | 0.134 µM
CN(C1CCN(C(=O)Cn2nc(-c3ccncc3)cc2Cc2ccc(F)cc2)CC1)S(C)(=O)=O [Example 14, N-(1-{[5-(4-fluorobenzyl)-3-pyridin-4-yl-1H-pyrazol-1-yl]acetyl}piperidin-4-yl)-N-methylmethanesulfonamide] | 0.013 µM | 0.015 µM | – | 0.0236 µM
O=C(Cn1nc(-c2ccncc2)cc1Cc1ccc(F)cc1)N1CC[C@@H](N2CCOCC2)C1 [Example 103] | 0.025 µM | 0.068 µM | – | 0.106 µM
CN(C(=O)C1CCC1)C1CCN(C(=O)Cn2nc(-c3ccncc3)cc2Cc2ccc(F)cc2)CC1 [Example 12, N-(1-{[5-(4-fluorobenzyl)-3-pyridin-4-yl-1H-pyrazol-1-yl]acetyl}piperidin-4-yl)-N-methylcyclobutanecarboxamide] | < 0.003 µM | 0.009 µM | – | 0.00701 µM
